# Experimental data reported in patent US10477864B2, “Microbiocidal quinoline (thio)carboxamide derivatives” (priority 2016, dated 2019).
# Key:
# Fusarium culmorum [1] = test: microbe, parasite or virus in culture; format: cell-based; details: read-out: control of Fusarium culmorum
# [2] = test system: Botryotinia fuckeliana (Botrytis cinerea); test: Botryotinia fuckeliana (Botrytis cinerea) / liquid culture (gray mould); format: cell-based; details: 72 h, read-out: control of Botryotinia fuckeliana
# [3] = test system: Glomerella lagenarium (Colletotrichum lagenarium); test: Glomerella lagenarium (Colletotrichum lagenarium) / liquid culture (anthracnose); format: cell-based; details: Colletotrichum orbiculare; read-out: control of Glomerella lagenarium
# [4] = test system: Magnaporthe grisea (Pyricularia oryzae); test: microbe, parasite or virus in culture; format: cell-based; details: 72 h, read-out: control of Magnaporthe grisea
# [5] = test system: Monographella nivalis (Microdochium nivale); test: Monographella nivalis (Microdochium nivale) / liquid culture (foot rot cereals); format: cell-based; details: 96 h, read-out: control of Monographella nivalis
# Gaeumannomyces graminis = Gaeumannomyces graminis / liquid culture (take-all of cereals); format: cell-based; details: read-out: control of Gaeumannomyces graminis
# Fusarium culmorum [6] = test: whole plant or invertebrate; format: in vivo; details: in Triticum aestivum, read-out: control of Fusarium culmorum
SMILES,inhibition of growth at 200 ppm (Fusarium culmorum [1]),inhibition of growth at 200 ppm [2],inhibition of growth at 200 ppm [3],inhibition of growth at 200 ppm [4],melting point,inhibition of growth at 200 ppm [5],inhibition of growth at 200 ppm (Gaeumannomyces graminis),pest or weed control at 200 ppm (Fusarium culmorum [6])
"Cc1ccc(CC(C)(CC(C)C)NC(=O)c2cnc3c(F)cccc3c2)cc1 (stereo not shown) [Compound E-31, N-[1,3-dimethyl-1-(p-tolylmethyl)butyl]-8-fluoro-quinoline-3-carboxamide]",≥ 80%,≥ 80%,≥ 80%,≥ 80%,116 to 118 °C,≥ 80%,,
"CC(C#N)(Cc1ccc(F)cc1F)NC(=O)c1cnc2c(F)cccc2c1 (stereo not shown) [Compound E-8, N-[1-cyano-2-(2,4-difluorophenyl)-1-methyl-ethyl]-8-fluoro-quinoline-3-carboxamide]",≥ 80%,≥ 80%,,,,,≥ 80%,
"CC(C)C[C@](C)(Cc1ccccc1Cl)NC(=O)c1cnc2c(F)cccc2c1 [Compound F-7, N-[(1R)-1-[(2-chlorophenyl)methyl]-1,3-dimethyl-butyl]-8-fluoro-quinoline-3-carboxamide]",≥ 80%,≥ 80%,≥ 80%,,,,≥ 80%,
"CC(C)(F)CC(C)(Cc1ccccc1)NC(=O)c1cnc2c(F)cccc2c1 (stereo not shown) [Compound E-56, N-(1-benzyl-3-fluoro-1,3-dimethyl-butyl)-8-fluoro-quinoline-3-carboxamide]",≥ 80%,≥ 80%,≥ 80%,≥ 80%,,≥ 80%,,≥ 80%
"CC(C)C[C@@](C)(Cc1ccccc1Cl)NC(=O)c1cnc2c(F)cccc2c1 [Compound F-8, N-[(1S)-1-[(2-chlorophenyl)methyl]-1,3-dimethyl-butyl]-8-fluoro-quinoline-3-carboxamide]",≥ 80%,≥ 80%,≥ 80%,,,≥ 80%,≥ 80%,
"CC(Cc1ccccc1)(CC1CC1)NC(=O)c1cnc2c(F)cccc2c1 (stereo not shown) [Compound E-49, N-(1-benzyl-2-cyclopropyl-1-methyl-ethyl)-8-fluoro-quinoline-3-carboxamide]",≥ 80%,≥ 80%,≥ 80%,≥ 80%,,≥ 80%,,≥ 80%
"CC(C)(C)C(Cc1ccccc1)NC(=O)c1cnc2c(F)cccc2c1 (stereo not shown) [Compound E-12, N-(1-benzyl-2,2-dimethyl-propyl)-8-fluoro-quinoline-3-carboxamide]",≥ 80%,≥ 80%,≥ 80%,≥ 80%,163 to 164 °C,≥ 80%,,≥ 80%
"CC(C)CC(C)(NC(=O)c1cnc2ccccc2c1)C(F)(F)c1ccccc1 (stereo not shown) [Compound E-59, N-[1-[difluoro(phenyl)methyl]-1,3-dimethyl-butyl]quinoline-3-carboxamide]",≥ 80%,≥ 80%,,≥ 80%,,≥ 80%,,≥ 80%
"CC(C)(C)C[C@](C)(Cc1ccccc1)NC(=O)c1cnc2c(F)cccc2c1 [Compound F-17, N-[(1R)-1-benzyl-1,3,3-trimethyl-butyl]-8-fluoro-quinoline-3-carboxamide]",≥ 80%,≥ 80%,≥ 80%,,,,≥ 80%,≥ 80%
"CC(C#N)(Cc1ccccc1)NC(=O)c1cnc2c(F)cccc2c1 (stereo not shown) [Compound E-10, N-(1-cyano-1-methyl-2-phenyl-ethyl)-8-fluoro-quinoline-3-carboxamide]",≥ 80%,≥ 80%,,,,,≥ 80%,≥ 80%
"CC(Cc1ccccc1)(CC(F)(F)F)NC(=O)c1cnc2c(Cl)cccc2c1 (stereo not shown) [Compound E-60, N-(1-benzyl-3,3,3-trifluoro-1-methyl-propyl)-8-chloro-quinoline-3-carboxamide]",≥ 80%,≥ 80%,≥ 80%,≥ 80%,141 to 144 °C,≥ 80%,,≥ 80%
"C=CC[C@](C)(Cc1ccccc1)NC(=O)c1cnc2c(F)cccc2c1 [Compound F-16, N-[(1R)-1-benzyl-1-methyl-but-3-enyl]-8-fluoro-quinoline-3-carboxamide]",≥ 80%,≥ 80%,≥ 80%,,,,≥ 80%,≥ 80%
"CC(C#N)(Cc1ccc(Cl)cc1)NC(=O)c1cnc2c(F)cccc2c1 (stereo not shown) [Compound E-7, N-[2-(4-chlorophenyl)-1-cyano-1-methyl-ethyl]-8-fluoro-quinoline-3-carboxamide]",≥ 80%,≥ 80%,,,,,≥ 80%,
"CC(C)(F)CC(C)(Cc1ccccc1)NC(=O)c1cnc2ccccc2c1 (stereo not shown) [Compound E-57, N-(1-benzyl-3-fluoro-1,3-dimethyl-butyl)quinoline-3-carboxamide]",≥ 80%,≥ 80%,≥ 80%,≥ 80%,,≥ 80%,,≥ 80%
"O=C(NC(Cc1ccccc1)CC(F)(F)F)c1cnc2c(F)cccc2c1 (stereo not shown) [Compound E-30, N-(1-benzyl-3,3,3-trifluoro-propyl)-8-fluoro-quinoline-3-carboxamide]",≥ 80%,≥ 80%,≥ 80%,≥ 80%,140 to 142 °C,≥ 80%,,≥ 80%
"Cc1cccc(CC(C)(CC(C)C)NC(=O)c2cnc3c(F)cccc3c2)c1 (stereo not shown) [Compound E-33, N-[1,3-dimethyl-1-(m-tolylmethyl)butyl]-8-fluoro-quinoline-3-carboxamide]",≥ 80%,≥ 80%,≥ 80%,≥ 80%,94 to 96 °C,≥ 80%,,
"CC(C)C(C)(Cc1ccccc1)NC(=O)c1cnc2c(F)cccc2c1 (stereo not shown) [Compound E-5, N-(1-benzyl-1,2-dimethyl-propyl)-8-fluoro-quinoline-3-carboxamide]",≥ 80%,≥ 80%,≥ 80%,≥ 80%,,≥ 80%,,≥ 80%
"CC(F)(F)C[C@](C)(Cc1ccccc1)NC(=O)c1cnc2c(F)cccc2c1 [Compound F-39, N-[(1S)-1-benzyl-3,3-difluoro-1-methyl-butyl]-8-fluoro-quinoline-3-carboxamide]",≥ 80%,≥ 80%,≥ 80%,≥ 80%,,≥ 80%,,≥ 80%
